The structures appear in SMILES notation. Where “and” joins values, the source holds several entries; their conditions need not be identical. Equal entries are not always repeated. Inconclusive results and toxic doses are left out.

This note sets out measurements from PubChem BioAssay AID330 (DTP/NCI, 2004).

The test system of this experiment is P388 leukemia ip, CD2F1 mice, survival T/C. Description: NCI In Vivo Anticancer Drug Screen. Data for tumor model P388 Leukemia (intraperitoneal) in CD2F1 (CDF1) mice. As to conditions: endpoint: median survival time, higher = longer survival. An outline of the steps:
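Mice carrying the transplanted tumor received test compound or vehicle. Survival was recorded in each group, and the value is the treated-group measurement divided by that of the vehicle-treated control group.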

Where [1] appears, read: dose: 60.0 mg/kg/injection, schedule: Q01DX005 (ip), vehicle: saline with Tween-80.
The mark [2] stands for this setting: dose: 120.0 mg/kg/injection, schedule: Q01DX005 (ip), vehicle: saline with Tween-80.
Where [3] appears, read: dose: 240.0 mg/kg/injection, schedule: Q01DX005 (ip), vehicle: saline with Tween-80.
Where [4] appears, read: dose: 50.0 mg/kg/injection, schedule: Q01DX005 (ip), vehicle: Klucel (hydroxypropylcellulose) (HPC).
Where [5] appears, read: dose: 100.0 mg/kg/injection, schedule: Q01DX005 (ip), vehicle: Klucel (hydroxypropylcellulose) (HPC).
Where [6] appears, read: dose: 50.0 mg/kg/injection, schedule: Q01DX009 (ip), vehicle: saline with Tween-80.
[7] abbreviates: dose: 100.0 mg/kg/injection, schedule: Q01DX009 (ip), vehicle: saline with Tween-80.
Setting [8] is: dose: 200.0 mg/kg/injection, schedule: Q01DX009 (ip), vehicle: saline with Tween-80.
Where [9] appears, read: dose: 50.0 mg/kg/injection, schedule: Q01DX005 (ip), vehicle: saline with Tween-80.
Where [10] appears, read: dose: 100.0 mg/kg/injection, schedule: Q01DX005 (ip), vehicle: saline with Tween-80.
The mark [11] stands for this setting: dose: 200.0 mg/kg/injection, schedule: Q01DX005 (ip), vehicle: saline with Tween-80.
Setting [12] is: dose: 6.25 mg/kg/injection, schedule: Q01DX005 (ip), vehicle: saline with Tween-80.
[13] abbreviates: dose: 12.5 mg/kg/injection, schedule: Q01DX005 (ip), vehicle: saline with Tween-80.
The mark [14] stands for this setting: dose: 25.0 mg/kg/injection, schedule: Q01DX005 (ip), vehicle: Klucel (hydroxypropylcellulose) (HPC).
Where [15] appears, read: dose: 15.0 mg/kg/injection, schedule: Q01DX005 (ip), vehicle: saline with Tween-80.
Setting [16] is: dose: 30.0 mg/kg/injection, schedule: Q01DX005 (ip), vehicle: saline with Tween-80.

As for `O=C1CCC(=O)N(CNc2cccc(Cc3cccc(NCN4CC(=O)CCC4=O)c3)c2)C1`, the T/C under setting [1] was 91 % of control, the T/C under setting [2] was 91 % of control and the T/C under setting [3] is 89 % of control.
Regarding `CCCCC(CCC)(CCN)CCCC`, the T/C is, setting by setting: (dose: 3.0 mg/kg/injection, schedule: Q01DX009 (ip), vehicle: saline) 95 % of control; (dose: 6.0 mg/kg/injection, schedule: Q01DX009 (ip), vehicle: saline) 100 % of control; (dose: 12.0 mg/kg/injection, schedule: Q01DX009 (ip), vehicle: saline) 104 % of control.
With `Clc1cccc(O[Si]23OCCN(CCO2)CCO3)c1`, the T/C reads like this: under setting [4], 109 % of control; under setting [5], 106 % of control; (dose: 200.0 mg/kg/injection, schedule: Q01DX005 (ip), vehicle: Klucel (hydroxypropylcellulose) (HPC)) 102 % of control.
For the compound `O=C1C=C2C(=CCOC2O)O1` (stereo not given), the T/C (dose: 0.3 mg/kg/injection, schedule: Q01DX009 (ip), vehicle: saline with Tween-80) was 106 % of control; the T/C (dose: 0.3 mg/kg/injection, schedule: Q04DX003 (ip), vehicle: saline with Tween-80) is 106 % of control; the T/C (dose: 1.0 mg/kg/injection, schedule: Q04DX003 (ip), vehicle: saline with Tween-80) is 114 % of control; the T/C (dose: 2.0 mg/kg/injection, schedule: Q01DX009 (ip), vehicle: Klucel (hydroxypropylcellulose) (HPC)) was 117 % of control and 123 % of control; the T/C (dose: 4.0 mg/kg/injection, schedule: Q01DX009 (ip), vehicle: Klucel (hydroxypropylcellulose) (HPC)) was 106 % of control and 123 % of control; the T/C (dose: 10.0 mg/kg/injection, schedule: Q04DX003 (ip), vehicle: saline with Tween-80) was 113 % of control.
In the case of `CC(C)(C)C(CCC(=O)O)CC(=O)O` (stereo not given), the T/C is, setting by setting: under setting [6], 100 % of control; under setting [7], 95 % of control; (dose: 100.0 mg/kg/injection, schedule: Q04DX003 (ip), vehicle: saline) 95 % of control; under setting [8], 100 % of control; (dose: 200.0 mg/kg/injection, schedule: Q04DX003 (ip), vehicle: saline) 91 % of control.
Take `CCOC(=O)c1c(-c2ccccc2)nn2c1COC(=O)C2`: the T/C under setting [9] is 103 % of control, the T/C under setting [10] is 99 % of control and the T/C under setting [11] is 98 % of control.
For the compound `Cc1ccccc1C(C)C[n+]1cccc(C)c1C` (stereo not given), the T/C was 101 % of control under setting [12] and 101 % of control under setting [13].
Consider `CC(=O)OC1CC(O)CC2=CCC3C4CCC(C(C)(O)C(O)CC5COC(=O)C5C)C4(C)CCC3C21C` (stereo not given), for which the T/C by setting is: (dose: 4.0 mg/kg/injection, schedule: Q01DX005 (ip), vehicle: distilled water + Tween-80) 96 % of control; (dose: 8.0 mg/kg/injection, schedule: Q01DX005 (ip), vehicle: distilled water + Tween-80) 95 % of control; (dose: 16.0 mg/kg/injection, schedule: Q01DX005 (ip), vehicle: distilled water + Tween-80) 96 % of control; (dose: 32.0 mg/kg/injection, schedule: Q01DX005 (ip), vehicle: distilled water + Tween-80) 91 % of control and 97 % of control; (dose: 64.0 mg/kg/injection, schedule: Q01DX005 (ip), vehicle: distilled water + Tween-80) 87 % of control and 94 % of control.
Consider `Cc1cc(OCc2nnc3n2S(=O)(=O)c2ccccc2N3C)ccc1Cl`, for which the T/C is 87 % of control under setting [1] and 90 % of control under setting [2].
With `CC[CH2][Sn](=[O])[c]1ccccc1`, the T/C is 99 % of control (dose: 12.5 mg/kg/injection, schedule: Q01DX009 (ip), vehicle: saline); 105 % of control (dose: 25.0 mg/kg/injection, schedule: Q01DX009 (ip), vehicle: saline); 98 % of control and 123 % of control (dose: 50.0 mg/kg/injection, schedule: Q01DX009 (ip), vehicle: saline); 96 % of control (dose: 200.0 mg/kg/injection, schedule: Q01DX009 (ip), vehicle: saline).
For `Clc1cccc(Cl)c1C(Nc1cnccn1)Nc1cnccn1`, the T/C runs as follows: under setting [14], 101 % of control and 104 % of control; under setting [4], 101 % of control (2×) and 116 % of control; under setting [5], 106 % of control and 113 % of control.
With `N#CC1Oc2ccccc2N1C(=O)c1ccccc1` (stereo not given), the T/C was 101 % of control under setting [9], 102 % of control under setting [10] and 90 % of control under setting [11].
With `CN=C(NC)c1ccc(NC(=O)c2ccc(C(=O)Nc3ccc(C(=NC)NC)c(C)c3)cc2)cc1C`, the T/C under setting [12] was 111 % of control and 118 % of control; the T/C under setting [13] was 119 % of control; the T/C (dose: 25.0 mg/kg/injection, schedule: Q01DX005 (ip), vehicle: saline with Tween-80) was 164 % of control and 173 % of control.
Regarding `CCc1nc(N)nc(N)c1-c1ccc(NCCN)c([N+](=O)[O-])c1`, the T/C runs as follows: under setting [1], 113 % of control; under setting [2], 116 % of control; under setting [3], 116 % of control.
On to `Cn1c(=O)c2nc(-c3ccc(Cl)c(Cl)c3)c(-c3ccc(Cl)c(Cl)c3)nc2n(C)c1=O`, for which the T/C runs as follows: (dose: 3.13 mg/kg/injection, schedule: Q01DX001 (ip), vehicle: saline with Tween-80) 100 % of control; (dose: 6.25 mg/kg/injection, schedule: Q01DX001 (ip), vehicle: saline with Tween-80) 104 % of control; (dose: 12.5 mg/kg/injection, schedule: Q01DX001 (ip), vehicle: saline with Tween-80) 95 % of control; (dose: 25.0 mg/kg/injection, schedule: Q01DX001 (ip), vehicle: saline with Tween-80) 96 % of control; (dose: 50.0 mg/kg/injection, schedule: Q01DX001 (ip), vehicle: saline with Tween-80) 93 % of control; (dose: 200.0 mg/kg/injection, schedule: Q01DX001 (ip), vehicle: saline with Tween-80) 91 % of control.
On to `Cc1ccc(C)[nH][nH]c(N)n1`, for which the T/C was 99 % of control (dose: 25.0 mg/kg/injection, schedule: Q01DX009 (ip), vehicle: water); 101 % of control (dose: 50.0 mg/kg/injection, schedule: Q01DX009 (ip), vehicle: water); 101 % of control (dose: 100.0 mg/kg/injection, schedule: Q01DX009 (ip), vehicle: water).
`CN(C=O)S(C)(=O)=O`: the T/C under setting [6] was 100 % of control, the T/C under setting [7] was 100 % of control and the T/C under setting [8] is 100 % of control.
Take `CCC(c1ccc(O)cc1)C(CC)c1ccc(OC)cc1` (stereo not given): the T/C (dose: 100.0 mg/kg/injection, schedule: Q04DX003 (ip), vehicle: saline with Tween-80) is 104 % of control and the T/C (dose: 200.0 mg/kg/injection, schedule: Q04DX003 (ip), vehicle: saline with Tween-80) is 86 % of control.
Consider `O=C(N/N=C\c1ccc(N(CCCl)CCCl)cc1)c1cccnc1`, for which the T/C by setting is: (dose: 12.5 mg/kg/injection, schedule: Q01DX009 (ip), vehicle: Klucel (hydroxypropylcellulose) (HPC)) 107 % of control; (dose: 25.0 mg/kg/injection, schedule: Q01DX009 (ip), vehicle: Klucel (hydroxypropylcellulose) (HPC)) 107 % of control.
For the compound `CCOC(=O)c1ccc(NC(=O)Nc2cccc(NC(C)=O)c2)cc1`, the T/C reads like this: (dose: 15.0 mg/kg/injection, schedule: Q01DX005 (ip), vehicle: Klucel (hydroxypropylcellulose) (HPC)) 92 % of control; (dose: 30.0 mg/kg/injection, schedule: Q01DX005 (ip), vehicle: Klucel (hydroxypropylcellulose) (HPC)) 91 % of control; (dose: 60.0 mg/kg/injection, schedule: Q01DX005 (ip), vehicle: Klucel (hydroxypropylcellulose) (HPC)) 89 % of control.
Take `CC1(C)CC2(C)OC(=O)c3ccccc3N2C(=S)N1` (stereo not given): the T/C was 94 % of control under setting [15]; 95 % of control under setting [16]; 90 % of control and 96 % of control under setting [1].
As for `O=S(=O)(Nc1cccc(Cl)c1)c1ccc(F)cc1`, the T/C was 96 % of control under setting [1], 99 % of control under setting [2] and 101 % of control under setting [3].
For the compound `COc1cc(C2c3cc4c(cc3C(=O)C(C)C2C)OCO4)ccc1O` (stereo not given), the T/C runs as follows: under setting [14], 98 % of control; under setting [4], 98 % of control; under setting [5], 102 % of control; (dose: 150.0 mg/kg/injection, schedule: Q01DX005 (ip), vehicle: Klucel (hydroxypropylcellulose) (HPC)) 86 % of control.
In the case of `CN1C(=O)CC2(C)C1=CCc1scnc12` (stereo not given), the T/C by setting is: (dose: 7.5 mg/kg/injection, schedule: Q01DX005 (ip), vehicle: saline with Tween-80) 94 % of control; under setting [15], 99 % of control; under setting [16], 99 % of control.
